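Interpolation was linear, between the two tested concentrations surrounding the appropriate level; five concentrations were tested over 48 hours in 96-well plates. GI50: concentration for 50% inhibition of growth.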 Calls of active or inactive are those of the source. Rule as the data show it: active = GI50 up to about 1.1 µM and inactive = higher.
Legend:
Assay in all cases: inhibition of tumour cell growth, NCI panel, 48 h
NCI-H23 = system: NCI-H23
SW-620 = system: SW-620
SN12C = system: SN12C
K562 = system: K562
SK-MEL-5 = system: SK-MEL-5
NCI-H460 = system: NCI-H460
SNB-75 = system: SNB-75
UO-31 = system: UO-31
EKVX = system: EKVX
MOLT-4 = system: MOLT-4
HCT-116 = system: HCT-116
HOP-62 = system: HOP-62
UACC-62 = system: UACC-62
NCI-H522 = system: NCI-H522
OVCAR-4 = system: OVCAR-4
HT-29 = system: HT-29
OVCAR-8 = system: OVCAR-8
SNB-19 = system: SNB-19
U-251 = system: U-251
Malme-3M = system: Malme-3M

CC(NNC(=O)c1cc[n+]([BH2-]C#N)cc1)c1ccc(F)cc1 (stereo not given)
GI50 (NCI-H23): > 100 µM (inactive)
GI50 (SW-620): > 100 µM (inactive)
GI50 (SN12C): > 100 µM (inactive)
GI50 (K562): > 100 µM (inactive)
GI50 (SK-MEL-5): > 100 µM (inactive)
GI50 (NCI-H460): > 100 µM (inactive)
GI50 (SNB-75): > 100 µM (inactive)
GI50 (UO-31): > 100 µM (inactive)
GI50 (EKVX): > 100 µM (inactive)
GI50 (MOLT-4): > 100 µM (inactive)
GI50 (HCT-116): > 100 µM (inactive)
GI50 (HOP-62): > 100 µM (inactive)
GI50 (UACC-62): > 100 µM (inactive)
GI50 (NCI-H522): > 100 µM (inactive)
GI50 (OVCAR-4): > 100 µM (inactive)
GI50 (HT-29): > 100 µM (inactive)
GI50 (OVCAR-8): > 100 µM (inactive)
GI50 (SNB-19): > 100 µM (inactive)
GI50 (U-251): > 100 µM (inactive)
GI50 (Malme-3M): > 100 µM (inactive)

COC(=O)[C@@H]1c2cc3c(c(O)c2[C@@H](OC)C[C@@]1(C)O)C(=O)c1c(O)cc2c(c1C3=O)OC1O[C@@]2(C)[C@H](O)[C@@H](N(C)C)[C@@H]1O
GI50 (NCI-H23): 0.428 µM (active)
GI50 (SW-620): 0.193 µM (active)
GI50 (SN12C): 0.254 µM (active)
GI50 (K562): 0.322 µM (active)
GI50 (SK-MEL-5): 0.364 µM (active)
GI50 (NCI-H460): 0.129 µM (active)
GI50 (SNB-75): 0.245 µM (active)
GI50 (UO-31): 1.14 µM (inactive)
GI50 (EKVX): 0.345 µM (active)
GI50 (MOLT-4): 0.143 µM (active)
GI50 (HCT-116): 0.261 µM (active)
GI50 (HOP-62): 0.198 µM (active)
GI50 (UACC-62): 0.223 µM (active)
GI50 (NCI-H522): 0.445 µM (active)
GI50 (OVCAR-4): 0.395 µM (active)
GI50 (HT-29): 0.355 µM (active)
GI50 (OVCAR-8): 0.234 µM (active)
GI50 (SNB-19): 0.337 µM (active)
GI50 (U-251): 0.307 µM (active)
GI50 (Malme-3M): 0.506 µM (active)

COc1cc(C(C)c2cc3c(cc2OCCO)OCO3)cc(OC)c1OC (stereo not given)
GI50 (NCI-H23): 1.91 µM (inactive)
GI50 (SW-620): 0.746 µM (active)
GI50 (SN12C): 5.82 µM (inactive)
GI50 (K562): 0.486 µM (active)
GI50 (SK-MEL-5): 0.667 µM (active)
GI50 (NCI-H460): 2.2 µM (inactive)
GI50 (SNB-75): 1.2 µM (inactive)
GI50 (UO-31): 5.82 µM (inactive)
GI50 (EKVX): 3.79 µM (inactive)
GI50 (MOLT-4): 0.935 µM (active)
GI50 (HCT-116): 1.38 µM (inactive)
GI50 (HOP-62): 1.74 µM (inactive)
GI50 (UACC-62): 0.601 µM (active)
GI50 (NCI-H522): 0.547 µM (active)
GI50 (OVCAR-4): 45.3 µM (inactive)
GI50 (HT-29): 0.436 µM (active)
GI50 (OVCAR-8): 3.27 µM (inactive)
GI50 (SNB-19): 3.93 µM (inactive)
GI50 (U-251): 2.48 µM (inactive)
GI50 (Malme-3M): > 100 µM (inactive)

Cn1c2ccccc2c(=O)c2c(O)cc3c(c21)C=CC(C)(C)O3 [NORACRONYCINE]
GI50 (NCI-H23): > 25 µM (inactive)
GI50 (SW-620): 12.2 µM (inactive)
GI50 (SN12C): > 25 µM (inactive)
GI50 (K562): > 25 µM (inactive)
GI50 (SK-MEL-5): > 25 µM (inactive)
GI50 (NCI-H460): > 25 µM (inactive)
GI50 (SNB-75): > 16.8 µM (inactive)
GI50 (UO-31): > 25 µM (inactive)
GI50 (EKVX): > 21.1 µM (inactive)
GI50 (MOLT-4): 6.28 µM (inactive)
GI50 (HCT-116): > 25 µM (inactive)
GI50 (HOP-62): > 25 µM (inactive)
GI50 (UACC-62): > 25 µM (inactive)
GI50 (NCI-H522): > 25 µM (inactive)
GI50 (OVCAR-4): > 25 µM (inactive)
GI50 (HT-29): > 25 µM (inactive)
GI50 (OVCAR-8): 2.5 µM (inactive)
GI50 (SNB-19): 9.31 µM (inactive)
GI50 (U-251): > 25 µM (inactive)
GI50 (Malme-3M): > 25 µM (inactive)

O=C(O)CCCCCCCCC(=O)O [SEBACIC ACID]
GI50 (NCI-H23): 79.3 µM (inactive)
GI50 (SW-620): > 500 µM (inactive)
GI50 (SN12C): > 321 µM (inactive)
GI50 (K562): > 500 µM (inactive)
GI50 (SK-MEL-5): > 23.2 µM (inactive)
GI50 (NCI-H460): 108 µM (inactive)
GI50 (SNB-75): > 79.3 µM (inactive)
GI50 (UO-31): > 79.3 µM (inactive)
GI50 (EKVX): 50 µM (inactive)
GI50 (MOLT-4): > 500 µM (inactive)
GI50 (HCT-116): > 500 µM (inactive)
GI50 (HOP-62): > 50 µM (inactive)
GI50 (UACC-62): > 79.3 µM (inactive)
GI50 (NCI-H522): > 500 µM (inactive)
GI50 (OVCAR-4): > 50 µM (inactive)
GI50 (HT-29): > 23.2 µM (inactive)
GI50 (OVCAR-8): 108 µM (inactive)
GI50 (SNB-19): 108 µM (inactive)
GI50 (U-251): > 79.3 µM (inactive)
GI50 (Malme-3M): > 500 µM (inactive)

— ChEMBL document CHEMBL1201862, “PubChem BioAssay data set” (2004)
